Active and inactive are the calls of the source. No cut-off for these calls is given here.
Experiments:
[1] = target: T1, Tyrosine-protein phosphatase non-receptor type 1 (Homo sapiens, UniProt P18031); experiment: (§1) Inhibition of PTP1B
T1 sequence (P18031 whole entry): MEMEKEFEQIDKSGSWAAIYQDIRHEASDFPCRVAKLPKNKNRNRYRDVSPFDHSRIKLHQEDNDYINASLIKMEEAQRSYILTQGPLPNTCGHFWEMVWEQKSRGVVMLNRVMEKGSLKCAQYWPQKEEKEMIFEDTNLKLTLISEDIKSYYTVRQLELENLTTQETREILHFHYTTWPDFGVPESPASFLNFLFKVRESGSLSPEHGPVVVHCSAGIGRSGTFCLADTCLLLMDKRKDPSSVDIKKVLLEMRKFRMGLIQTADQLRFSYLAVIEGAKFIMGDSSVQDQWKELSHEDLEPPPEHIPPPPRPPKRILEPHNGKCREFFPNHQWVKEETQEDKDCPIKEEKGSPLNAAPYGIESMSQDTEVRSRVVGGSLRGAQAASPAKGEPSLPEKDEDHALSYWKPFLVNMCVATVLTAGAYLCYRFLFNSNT

[2] = target: T2, Receptor-type tyrosine-protein phosphatase C (Homo sapiens, UniProt P08575); experiment: Inhibition of CD45
T2 sequence (P08575 whole entry): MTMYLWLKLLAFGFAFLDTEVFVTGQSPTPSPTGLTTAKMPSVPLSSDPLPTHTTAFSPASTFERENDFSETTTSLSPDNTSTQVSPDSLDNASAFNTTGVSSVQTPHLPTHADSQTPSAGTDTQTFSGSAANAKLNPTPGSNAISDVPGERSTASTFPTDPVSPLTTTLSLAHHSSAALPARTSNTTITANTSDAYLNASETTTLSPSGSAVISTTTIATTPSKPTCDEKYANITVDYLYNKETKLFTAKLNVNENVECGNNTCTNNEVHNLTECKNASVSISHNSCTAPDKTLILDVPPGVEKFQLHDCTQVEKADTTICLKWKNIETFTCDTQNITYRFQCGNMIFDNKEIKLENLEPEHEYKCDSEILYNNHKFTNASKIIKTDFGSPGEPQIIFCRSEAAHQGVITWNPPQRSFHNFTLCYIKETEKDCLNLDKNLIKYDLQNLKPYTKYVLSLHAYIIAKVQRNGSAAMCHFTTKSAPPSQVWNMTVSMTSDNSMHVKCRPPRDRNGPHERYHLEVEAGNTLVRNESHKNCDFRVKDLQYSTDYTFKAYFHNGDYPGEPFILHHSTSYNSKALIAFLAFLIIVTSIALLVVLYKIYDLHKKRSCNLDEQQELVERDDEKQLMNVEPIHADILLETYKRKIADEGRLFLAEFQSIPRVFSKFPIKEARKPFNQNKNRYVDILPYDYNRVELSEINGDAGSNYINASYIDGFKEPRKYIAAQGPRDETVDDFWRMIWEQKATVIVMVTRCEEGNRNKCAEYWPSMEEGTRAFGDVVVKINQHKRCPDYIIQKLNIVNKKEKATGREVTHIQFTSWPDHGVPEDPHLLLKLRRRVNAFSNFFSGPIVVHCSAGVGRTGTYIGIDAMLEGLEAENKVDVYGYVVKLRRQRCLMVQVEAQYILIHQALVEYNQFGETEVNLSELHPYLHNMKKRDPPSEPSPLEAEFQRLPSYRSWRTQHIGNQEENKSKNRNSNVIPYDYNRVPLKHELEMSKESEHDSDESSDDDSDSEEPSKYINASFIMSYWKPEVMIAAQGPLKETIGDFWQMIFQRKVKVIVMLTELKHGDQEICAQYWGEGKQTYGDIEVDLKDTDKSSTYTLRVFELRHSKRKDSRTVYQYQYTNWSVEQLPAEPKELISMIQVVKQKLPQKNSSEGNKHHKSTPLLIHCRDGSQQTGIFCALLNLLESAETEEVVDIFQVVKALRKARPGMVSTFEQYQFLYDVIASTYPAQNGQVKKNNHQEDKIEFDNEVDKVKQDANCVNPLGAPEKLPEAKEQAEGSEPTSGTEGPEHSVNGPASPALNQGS

[3] = target: Receptor-type tyrosine-protein phosphatase F (Homo sapiens, UniProt P10586); experiment: Inhibition of LAR
[4] = target: T3, Tyrosine-protein phosphatase non-receptor type 1 (Homo sapiens) (UniProt P18031); experiment: as §1
T3 sequence (whole entry): T1 sequence (P18031 whole entry)

Chain of Receptor-type tyrosine-protein phosphatase F (P10586 whole entry): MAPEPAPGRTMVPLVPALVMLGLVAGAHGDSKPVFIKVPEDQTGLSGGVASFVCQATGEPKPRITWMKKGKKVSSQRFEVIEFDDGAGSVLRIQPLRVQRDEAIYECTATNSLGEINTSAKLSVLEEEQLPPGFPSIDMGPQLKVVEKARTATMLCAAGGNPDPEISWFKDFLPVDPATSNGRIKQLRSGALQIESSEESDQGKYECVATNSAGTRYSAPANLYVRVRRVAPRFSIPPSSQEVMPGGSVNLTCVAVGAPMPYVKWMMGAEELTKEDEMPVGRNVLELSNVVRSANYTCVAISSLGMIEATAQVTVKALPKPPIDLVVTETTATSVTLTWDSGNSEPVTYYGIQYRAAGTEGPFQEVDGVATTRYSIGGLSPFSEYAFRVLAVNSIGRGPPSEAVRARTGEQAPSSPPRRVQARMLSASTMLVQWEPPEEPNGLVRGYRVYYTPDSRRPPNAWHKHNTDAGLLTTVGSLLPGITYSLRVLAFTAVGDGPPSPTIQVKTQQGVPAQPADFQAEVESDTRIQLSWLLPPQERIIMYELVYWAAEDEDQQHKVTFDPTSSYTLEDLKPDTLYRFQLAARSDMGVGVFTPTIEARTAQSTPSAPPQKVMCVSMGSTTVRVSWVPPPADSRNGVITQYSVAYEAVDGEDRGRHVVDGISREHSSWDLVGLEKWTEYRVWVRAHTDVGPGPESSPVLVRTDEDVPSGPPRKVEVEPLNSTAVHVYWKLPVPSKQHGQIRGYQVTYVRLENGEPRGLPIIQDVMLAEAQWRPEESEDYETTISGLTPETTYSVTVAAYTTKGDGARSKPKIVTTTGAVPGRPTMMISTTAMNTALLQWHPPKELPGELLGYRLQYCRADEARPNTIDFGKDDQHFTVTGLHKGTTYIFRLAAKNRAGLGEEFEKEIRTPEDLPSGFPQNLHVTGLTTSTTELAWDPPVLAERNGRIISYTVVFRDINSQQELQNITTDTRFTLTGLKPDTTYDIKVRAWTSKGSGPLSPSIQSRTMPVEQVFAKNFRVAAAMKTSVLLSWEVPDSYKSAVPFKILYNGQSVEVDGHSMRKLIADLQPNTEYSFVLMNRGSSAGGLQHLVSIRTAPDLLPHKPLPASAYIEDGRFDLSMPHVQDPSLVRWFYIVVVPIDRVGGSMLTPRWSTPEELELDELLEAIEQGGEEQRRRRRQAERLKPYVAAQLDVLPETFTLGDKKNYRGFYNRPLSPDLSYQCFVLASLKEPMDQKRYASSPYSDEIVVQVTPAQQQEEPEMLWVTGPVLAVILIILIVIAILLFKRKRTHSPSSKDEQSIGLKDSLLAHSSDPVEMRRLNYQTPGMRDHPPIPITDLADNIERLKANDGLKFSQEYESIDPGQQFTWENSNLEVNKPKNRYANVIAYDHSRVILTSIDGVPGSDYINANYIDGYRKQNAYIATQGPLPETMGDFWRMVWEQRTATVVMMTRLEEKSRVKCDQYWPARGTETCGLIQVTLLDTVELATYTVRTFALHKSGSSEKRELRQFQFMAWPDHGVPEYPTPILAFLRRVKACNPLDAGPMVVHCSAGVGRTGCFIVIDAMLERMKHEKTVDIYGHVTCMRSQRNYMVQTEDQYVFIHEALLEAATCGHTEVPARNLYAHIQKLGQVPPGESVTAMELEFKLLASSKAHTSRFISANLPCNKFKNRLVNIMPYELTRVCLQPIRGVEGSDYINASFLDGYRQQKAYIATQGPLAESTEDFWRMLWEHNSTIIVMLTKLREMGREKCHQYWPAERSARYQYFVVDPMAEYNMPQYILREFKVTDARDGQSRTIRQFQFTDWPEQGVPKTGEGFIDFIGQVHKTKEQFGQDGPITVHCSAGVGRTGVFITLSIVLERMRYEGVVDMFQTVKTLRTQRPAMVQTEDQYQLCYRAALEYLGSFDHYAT

O=C(O)COc1ccsc1C(=O)O was tested, and the Ki [1] was greater than 1000 µM.

Compound CC(C)NC(=O)Nc1ccc(-c2sc(C(=O)O)c(OCC(=O)O)c2Br)cc1 has a Ki [1] of 0.36 µM.

In the case of O=C(O)COc1c(C(=O)O)sc(-c2ccc(NC(=O)CC(=O)O)cc2)c1Br, the Ki [2] is reported as 33 µM and the Ki [3] is reported as greater than 1000 µM.

CC(=O)Nc1ccc(-c2sc(C(=O)O)c(OCC(=O)O)c2Br)cc1 showed a Ki [1] of 0.5 µM.

Compound CN(C)c1ccc(-c2sc(C(=O)O)c(OCC(=O)O)c2Br)cc1 has a Ki [2] of 64 µM and a Ki [3] greater than 1000 µM.

Compound O=C(O)COc1c(C(=O)O)sc(-c2cccc(O)c2)c1Br has a Ki [1] of 1 µM.

For COc1ccc(-c2sc(C(=O)O)c(OCC(=O)O)c2Br)cc1, the Ki [1] was 3 µM.

For O=C(O)COc1c(C(=O)O)sc(-c2ccccc2)c1Br, the Ki [2] was 26 µM and the Ki [3] was greater than 1000 µM.

For COC(=O)Nc1ccc(-c2sc(C(=O)O)c(OCC(=O)O)c2Br)cc1, the Ki [1] was 1 µM.

O=C(O)COc1c(C(=O)O)sc(-c2ccc(NC(=O)c3ccccc3)cc2)c1Br was tested, and the Ki [1] was 0.6 µM.

O=C(O)COc1c(-c2ccccc2)csc1C(=O)O gave a Ki [1] greater than 1000 µM.

O=C(O)COc1c(C(=O)O)sc(-c2cccnc2)c1Br showed a Ki [1] of 4 µM.

O=C(O)COc1c(C(=O)O)sc(-c2ccc(NS(=O)(=O)c3ccc(C(F)(F)F)cc3)cc2)c1Br gave a Ki [1] of 0.2 µM.

CC1(C)CC(Nc2ccc(-c3sc(C(=O)O)c(OCC(=O)O)c3Br)cc2)CC(C)(C)C1 was tested, and the Ki [1] was 0.25 µM.

For O=C(O)COc1c(C(=O)O)sc(-c2ccsc2)c1Br, the Ki [1] was 1.4 µM.

For O=C(O)COc1c(C(=O)O)sc(-c2ccc(NC(=O)c3ccco3)cc2)c1Br, the Ki [1] was 0.62 µM.

For Nc1ccc(-c2sc(C(=O)O)c(OCC(=O)O)c2Br)cc1, the Ki [1] was 1.6 µM.

CS(=O)(=O)Nc1ccc(-c2sc(C(=O)O)c(OCC(=O)O)c2Br)cc1 showed a Ki [1] of 0.74 µM.

Compound O=C(O)COc1c(C(=O)O)sc(-c2ccc3ccccc3c2)c1Br has a Ki [1] of 3.3 µM.

Compound CN(c1ccc(-c2sc(C(=O)O)c(OCC(=O)O)c2Br)cc1)S(=O)(=O)c1ccc(C(F)(F)F)cc1 has a Ki [1] of 1.2 µM.

O=C(O)COc1c(C(=O)O)sc(-c2ccc3ccoc3c2)c1Br gave a Ki [1] of 5 µM.

O=C(O)COc1c(C(=O)O)sc(-c2ccccc2)c1-c1ccccc1 was tested, and the Activity [4] was “inactive”.

Work on O=C(O)COc1c(C(=O)O)sc(-c2ccc(NC(=O)c3cccnc3)cc2)c1Br yielded a Ki [2] of 55 µM and a Ki [3] of 320 µM.

Cc1csc(C(=O)O)c1OCC(=O)O showed a Ki [1] greater than 1000 µM.

Compound O=C(O)COc1c(C(=O)O)sc(-c2ccc3cc[nH]c3c2)c1Br has a Ki [1] of 0.57 µM.

O=C(O)COc1c(C(=O)O)sc(Br)c1Br gave a Ki [1] of 18 µM.

O=C(O)COc1c(C(=O)O)sc(-c2ccc(C(=O)Nc3ccccc3)cc2)c1Br gave a Ki [1] of 2.5 µM.

— ChEMBL document CHEMBL1149477, “Monocyclic thiophenes as protein tyrosine phosphatase 1B inhibitors: capturing interactions with Asp48” (Bioorg Med Chem Lett, 2006)
